Measured values published in patent US4411909A, “[(2-Oxo-3-tetrahydrothienylcarbamoyl)-alkylthio] acetic acids, their salts and esters, a process for preparation thereof and the pharmaceutical compositions containing same” (priority 1981, dated 1983).

Experiments:
bronchial mucus = test: test of activity in the rabbit: production/secretion of bronchial mucus (tracheal cannula, technique of Scuri et al.); type: in vivo; conditions: for variation % of secretion of mucus with respect to controls: intravenous, 10 mg/kg, 4 hours following vs 4 hours preceding treatment, versus physiological solution controls
Method: Rabbits were used weighing about 3 kg with a cannula implanted in the trachea according to the technique of Scuri et al., Boll. Chim. Farm., 119,(3), 1980. The quantity of mucus produced and excreted was recorded during the 4 hours preceding and the 4 hours following the treatment.

[1] = system: damage provoked by the action of sulfur dioxide on the bronchi; test: test of mucolytic activity based on the inhalation of SO2 in the rat; type: in vivo
Source text: In the test of mucolytic activity based on the inhalation of SO2 in the rat, the compounds of the present invention have shown a good mucolytic activity.

[2] = acute toxicity in the mouse; conditions: in vivo
[3] = acute toxicity in the rat; conditions: in vivo
[4] = toxicity, overall statement; type: in vivo; conditions: in words
[5] = intravenous, read-out: LD50 i.v.

| Compound | activity compared with reference product carbocysteine (mucus secretion) (bronchial mucus; i.v., same dose by weight (10 mg/kg)) | variation % of secretion of mucus with respect to controls (bronchial mucus) | regression of bronchial damage compared with carbocysteine ([1]; PV 144 oral 500 mg/kg vs carbocysteine 500 mg/kg (3.35 mmol/kg)) | regression of the damage provoked by sulfur dioxide on the bronchi ([1]; oral, 500 mg/kg (2 mmol/kg)) | LD50 [2, 5] | LD50 ([2]; oral, read-out: LD50 oral) | LD50 [3, 5] | LD50 ([3]; oral, read-out: LD50 oral) | toxicity [4] |
| --- | --- | --- | --- | --- | --- | --- | --- | --- | --- |
| O=C(O)CSCC(=O)NC1CCSC1=O (stereo not shown) [PV 144, [(2-oxo-3-tetrahydrothienylcarbamoyl)-methylthio]acetic acid] | at least as active as the reference product | 52.1% | qualitatively and quantitatively equal | significant regression of the damage | > 3500 mg/kg | > 10000 mg/kg | > 3500 mg/kg | > 10000 mg/kg | virtually without toxicity |
| N[C@@H](CSCC(=O)O)C(=O)O [carbocysteine, S-carboxymethylcysteine, reference compound] | – | 51.8% | – | – | – | – | – | – | – |
